For this experiment, the target named is T1, full-length hepatitis C viral protein NS3•4A (Hepatitis C virus genotype 1a, UniProt P27958).
T1 construct: hexa-histidine (N); made in house; host or cells: Sf9 insect cells (baculovirus, pVL1392)
Put plainly: biochemical. More on the design: species or system HCV sub-type strain 1a. The settings on record: Enzyme Assay 2, HCV NS3 Peptide Cleavage Assay, apparent Ki.

Take `CNC(=O)C(=O)[C@H](CC1CC1)NC(=O)[C@@H]1C[C@]2(CC(c3cccc(Cl)c3)=NO2)CN1C(=O)[C@@H](NC(=O)[C@@H]1C[C@H]1c1ccccn1)C(C)(C)C` [Compound 869]: the Ki is under 0.1 µM. Turning to `CCC[C@H](NC(=O)[C@@H]1C[C@]2(CC(c3cc(C)c(OC)cc3OC)=NO2)CN1C(=O)[C@@H](NC(=O)[C@@H]1C[C@H]1c1ccccc1)C(C)(C)C)C(=O)C(=O)NC1CC1` [Compound 875], the Ki was under 0.1 µM. Take `CNC(=O)C(=O)[C@H](CC1CC1)NC(=O)[C@@H]1C[C@]2(CC(c3cccc(Cl)c3)=NO2)CN1C(=O)[C@@H](NC(=O)[C@@H]1C[C@H]1c1cccnc1)C(C)(C)C` [Compound 885]: the Ki is 0.1 to 0.5 µM. `CNC(=O)C(=O)[C@H](CC1CC1)NC(=O)[C@@H]1C[C@]2(CC(c3cccc(Cl)c3)=NO2)CN1C(=O)[C@@H](NC(=O)[C@@H]1C[C@@H]1c1ccccn1)C(C)(C)C` [Compound 886]: the Ki is under 0.1 µM.

In the case of `CNC(=O)C(=O)[C@H](CC1CC1)NC(=O)[C@@H]1C[C@]2(CC(c3cccc(Cl)c3)=NO2)CN1C(=O)[C@@H](NC(=O)[C@H]1C[C@H]1c1ccccc1)C(C)(C)C` [Compound 887], the Ki fell in the range of 0.1 to 0.5 µM. Then `CCNC(=O)C(=O)[C@H](CC1CC1)NC(=O)[C@@H]1C[C@]2(CC(c3cc(Cl)c(OC)cc3OC)=NO2)CN1C(=O)[C@@H](NC(=O)C1CC1)C(C)(C)C` [Compound 896], with under 0.1 µM; and `CCC[C@H](NC(=O)[C@@H]1C[C@]2(CC(c3cccc(Cl)c3)=NO2)CN1C(=O)[C@@H](NC(=O)[C@@H]1C[C@H]1C(C)C)C(C)(C)C)C(=O)C(=O)NC1CC1` [Compound 897], with under 0.1 µM; and `COc1ccc(Cl)cc1C1=NO[C@]2(C1)C[C@@H](C(=O)N[C@@H](CC1CC1)C(=O)C(N)=O)N(C(=O)[C@@H](NC(=O)[C@@H]1C[C@H]1c1ccccc1)C(C)(C)C)C2` [Compound 901], with under 0.1 µM. Then `CNC(=O)C(=O)[C@H](CC1CC1)NC(=O)[C@@H]1C[C@]2(CC(c3cc(Cl)ccc3OC)=NO2)CN1C(=O)[C@@H](NC(=O)[C@H]1C[C@@H]1c1ccccc1)C(C)(C)C` [Compound 903], with under 0.1 µM.

Turning to `CCC[C@H](NC(=O)[C@@H]1C[C@]2(CC(N3Cc4ccccc4C3)=NO2)CN1C(=O)[C@@H](NC(=O)OC1CCCC1)C(C)(C)C)C(=O)C(=O)NC1CC1` [Compound 904], the Ki is under 0.1 µM. Then `CCC[C@H](NC(=O)C1C[C@]2(CC(c3cc(C)c(OC)c(C)c3)=NO2)CN1C(=O)[C@@H](NC(=O)[C@@H]1C[C@H]1c1c[nH]cn1)C(C)(C)C)C(=O)C(=O)NC1CC1` (stereo partly shown) [Compound 907], with 0.1 to 0.5 µM. In the case of `CCC[C@H](NC(=O)[C@@H]1C[C@]2(CC(c3cc(C)c(OCC)c(Cl)c3)=NO2)CN1C(=O)[C@@H](NC(=O)[C@@H]1C[C@H]1c1ccccc1)C(C)(C)C)C(=O)C(=O)NC1CC1` [Compound 915] it was under 0.1 µM; in that of `CCC[C@H](NC(=O)[C@@H]1C[C@]2(CC(c3cccc(Cl)c3)=NO2)CN1C(=O)[C@@H](NC(=O)[C@@H]1C[C@H]1c1c[nH]cn1)C(C)(C)C)C(=O)C(=O)NC1CC1` [Compound 918], 0.1 to 0.5 µM; in that of `CCC[C@H](NC(=O)[C@@H]1C[C@]2(CC(c3cccc(Cl)c3)=NO2)CN1C(=O)[C@@H](NC(=O)[C@H]1C[C@@H]1C1CCCCC1)C(C)(C)C)C(=O)C(=O)NC1CC1` [Compound 920], 0.1 to 0.5 µM.

Consider `CCC[C@H](NC(=O)[C@@H]1C[C@]2(CC(c3cccc(Cl)c3)=NO2)CN1C(=O)[C@@H](NC(=O)[C@@H]1CC12CCOCC2)C(C)(C)C)C(=O)C(=O)NC1CC1` [Compound 923], for which the Ki is under 0.1 µM. In the case of `CNC(=O)C(=O)[C@H](CC1CC1)NC(=O)[C@@H]1C[C@]2(CC(c3cccc(Cl)c3)=NO2)CN1C(=O)[C@@H](NC(=O)[C@@H]1CC12CCOCC2)C(C)(C)C` [Compound 927], the Ki is under 0.1 µM.

As for `CCC[C@H](NC(=O)[C@@H]1C[C@]2(CC(c3cccc(Cl)c3)=NO2)CN1C(=O)[C@@H](NC(=O)[C@H]1C[C@@H]1C1CCCCC1)C(C)(C)C)C(=O)C(=O)NC` [Compound 928], the Ki fell in the range of 0.1 to 0.5 µM. Then `CCC[C@H](NC(=O)[C@@H]1C[C@]2(CC(c3cccc(Cl)c3)=NO2)CN1C(=O)[C@@H](NC(=O)[C@@H]1CC12CCOCC2)C(C)(C)C)C(=O)C(=O)NC` [Compound 931], with 0.1 to 0.5 µM; and `CCC[C@H](NC(=O)[C@@H]1C[C@]2(CC(c3cccc(Cl)c3)=NO2)CN1C(=O)[C@@H](NC(=O)[C@H]1C[C@@H]1C1CCCCC1)C(C)(C)C)C(=O)C(N)=O` [Compound 932], with under 0.1 µM; and `CCOc1cc(OC)c(C2=NO[C@]3(C2)C[C@@H](C(=O)N[C@@H](CC2CC2)C(=O)C(=O)NC)N(C(=O)[C@@H](NC(=O)OC(C)(C)C)C(C)(C)C)C3)cc1Cl` [Compound 942], with under 0.1 µM. In the case of `CCOc1cc(OC)c(C2=NO[C@]3(C2)C[C@@H](C(=O)N[C@@H](CC2CC2)C(=O)C(=O)NC)N(C(=O)[C@@H](NC(=O)OC2CCCC2)C(C)(C)C)C3)cc1Cl` [Compound 947] it was under 0.1 µM. On to `CCC[C@H](NC(=O)[C@@H]1C[C@]2(CC(c3cccc(Cl)c3)=NO2)CN1C(=O)[C@@H](NC(=O)[C@H]1C[C@@H]1C1CCCC1)C(C)(C)C)C(=O)C(=O)NC1CC1` [Compound 953], for which the Ki was under 0.1 µM. Then `CCC[C@H](NC(=O)[C@@H]1C[C@]2(CC(c3cccc(Cl)c3)=NO2)CN1C(=O)[C@@H](NC(=O)[C@@H]1C[C@H]1C1CCCC1)C(C)(C)C)C(=O)C(=O)NC1CC1` [Compound 954], with under 0.1 µM; and `CNC(=O)C(=O)[C@H](CC1CC1)NC(=O)[C@@H]1C[C@]2(CC(c3cccc(Cl)c3)=NO2)CN1C(=O)[C@@H](NC(=O)C1CC1c1ccn(C)n1)C(C)(C)C` (stereo partly shown) [Compound 955], with under 0.1 µM. On to `CCC[C@H](NC(=O)[C@@H]1C[C@]2(CC(c3cc(C)c(OCC)c(C)c3)=NO2)CN1C(=O)[C@@H](NC(=O)CC1CCCCC1)C(C)(C)OC)C(=O)C(=O)NC1CC1` [Compound 956], for which the Ki is under 0.1 µM. Turning to `CCC[C@H](NC(=O)[C@@H]1C[C@]2(CC(c3cccc(Cl)c3)=NO2)CN1C(=O)[C@@H](NC(=O)OCC1(C)COC1)C(C)(C)C)C(=O)C(=O)NC1CC1` [Compound 957], the Ki lay within 0.1 to 0.5 µM.

With `CNC(=O)C(=O)[C@H](CC1CC1)NC(=O)[C@@H]1C[C@]2(CC(c3cccc(Cl)c3)=NO2)CN1C(=O)[C@@H](NC(=O)Cc1cccnc1)C(C)(C)C` [Compound 958], the Ki is under 0.1 µM.

Turning to `CNC(=O)C(=O)[C@H](CC1CC1)NC(=O)[C@@H]1C[C@]2(CC(c3cccc(Cl)c3)=NO2)CN1C(=O)[C@@H](NC(=O)[C@H]1CC1c1ccccc1)C(C)(C)OC` (stereo partly shown) [Compound 959], the Ki was under 0.1 µM. `CCC[C@H](NC(=O)[C@@H]1C[C@]2(CC(c3cccc(Cl)c3)=NO2)CN1C(=O)[C@@H](NC(=O)[C@H]1CC1c1ccccc1)C(C)(C)OC)C(=O)C(=O)NC1CC1` (stereo partly shown) [Compound 960]: the Ki is under 0.1 µM. `CCC[C@H](NC(=O)[C@@H]1C[C@]2(CC(c3cccc(Cl)c3)=NO2)CN1C(=O)[C@@H](NC(=O)C1(c2ccccc2)CC1)C(C)(C)C)C(=O)C(=O)NC1CC1` [Compound 961]: the Ki is over 0.5 µM.

For the compound `CCC[C@H](NC(=O)[C@@H]1C[C@]2(CC(N3CCc4ccccc4C3)=NO2)CN1C(=O)[C@@H](NC(=O)OC1CCCC1)C(C)(C)C)C(=O)C(=O)NC1CC1` [Compound 962], the Ki lay within 0.1 to 0.5 µM.

For the origin of these results see US7964624B1, “Inhibitors of serine proteases” (priority 2005, dated 2011).
